From publication PMC6149995 (2017)

Tests used:
[1] = test system: FmycT (DNA, G4) TTGAGGGTGGGTAGGGTGGGTAA; assay: FRET melting; conditions: 1 mM K+, 99 mM Li+; 10 mM lithium cacodylate pH 7.2; 1 µM ligand, 0.2 µM DNA; limit stated for all other cases
[2] = test system: ds26 (DNA, duplex) CAATCGGATCGAATTCGATCCGATTG; assay: fluorescence titration; conditions: K+ buffer; insignificant fluorescence reduction, fit unsuccessful; 0.5 µM ligand
[3] = test system: 22AG (DNA, G4) AGGGTTAGGGTTAGGGTTAGGG; assay: circular dichroism titration; conditions: 10 mM lithium cacodylate pH 7.2, 21 °C, 3 µM DNA
[4] = test system: 22AG (DNA, G4) AGGGTTAGGGTTAGGGTTAGGG; assay: fluorescence titration (ligand quenching, Hill fit); conditions: 10 mM lithium cacodylate pH 7.2, r.t., 0.5 µM ligand, DNA titrated
[5] = test system: Myc2345-Pu22 (DNA, G4) TGAGGGTGGGTAGGGTGGGTAA; assay: as above; conditions: 100 mM K+; 10 mM lithium cacodylate pH 7.2, r.t., 0.5 µM ligand, DNA titrated
[6] = test system: F21T (DNA, G4) GGGTTAGGGTTAGGGTTAGGG; assay: FRET melting; conditions: 90 mM Li+, 10 mM lithium cacodylate pH 7.2, 1 µM ligand, 0.2 µM DNA, limit stated for all other cases
[7] = 100 mM K+, 0-5 equiv ligand, conversion to antiparallel
[8] = 100 mM Na+, slightly reduced helicity, antiparallel kept

Row | SMILES | ΔTm [1] [°C] | binding [2] | binding [3, 7] | binding [3, 8] | KD ([4]; 100 mM K+) | KD ([4]; 100 mM Na+) | KD [5] | ΔTm ([6]; 10 mM K+) [°C] | ΔTm ([6]; 10 mM Na+) [°C] | binding ([3]; 100 mM K+, needs more equivalents to rearrange)
1 | c1ccc(-c2cnc(-c3cccc(-c4cnc(-c5cccc(-c6cnc(-c7ccccn7)o6)n5)o4)n3)o2)nc1 | < 3 | no | yes | yes | (5.0 ± 0.3) × 10^−7 M^−1 | (0.6 ± 0.0) × 10^−7 M^−1 | (1.9 ± 0.1) × 10^−7 M^−1 | – | – | –
2 | c1ccc(-c2cnc(-c3cccc(-c4cnc(-c5cccc(-c6cnco6)n5)o4)n3)o2)nc1 | < 3 | no | yes | yes | (2.2 ± 0.1) × 10^−7 M^−1 | (0.8 ± 0.1) × 10^−7 M^−1 | (1.7 ± 0.1) × 10^−7 M^−1 | – | – | –
3 | c1ccc(-c2cnc(-c3cccc(-c4cnc(-c5ccccn5)o4)n3)o2)nc1 | < 3 | no | – | yes | (3.2 ± 0.1) × 10^−7 M^−1 | (7.2 ± 0.8) × 10^−7 M^−1 | (4.8 ± 0.3) × 10^−7 M^−1 | < 3 | < 3 | yes
